The values below come from US20220184222A1, “BICYCLE TOXIN CONJUGATES AND USES THEREOF” (BicycleTx Limited, priority 2019, published 2022).

Starred links: 1 amine or outer side, 2 acyl side, 3 side chain; linkers in the order of their positions; H or OH if unused. Non-standard residues stand in square brackets, D forms with d. Residues, ends and D or L forms follow the SMILES beside them. *: point of attachment. Dolaproine = CO[C@@H]([C@@H]1CCCN1)[C@@H](C)C(=O)O; Dil = CC[C@H](C)[C@H](NC)[C@@H](CC(=O)O)OC; PABC = O=C(OCc1ccc(N[*:1])cc1)[*:2]; X1 = O=C(CCCC(=O)*)ON1C(=O)CCC1=O; X2 = C[C@@H](N*)[C@@H](O)c1ccccc1; Cit = NC(=O)NCCC[C@H](N)C(=O)O; NMeV = CN[C@H](C(=O)O)C(C)C

This experiment relates to PC-3M-luc-C6 human prostate carcinoma. The experiment is described as follows: Intracardially implanted PC-3M-Luc-C6 metastatic model, BLI and survival (Example 6). Type of experiment: in vivo, Mouse. To be noted: for Day 26 T/C: BLI total bone signal; for tumor growth delay: evaluation size 9.0E+07 p/s. Here is the method:
The purpose of this study was to evaluate the efficacy and overall impact of Bicycle toxin conjugate BT5528 against established intracardially implanted PC-3M-luc-C6 human prostate carcinoma in male nude mice, with treatment regimens starting at different disease stages (Day 14 and Day 21). Response was monitored using bioluminescence imaging (BLI) on Days 14, 21, 28, 35, and 42 coupled with traditional survival endpoints.
BT5528: • Formulation pH: 5.4 • High Dose Formulation: 0.15 mg/mL • Vehicle: 50 mM Acetate, 10% Sucrose • Storage: 4° C. • Dose volume: 0.01 mL/g
All procedures carried out in this experiment were conducted in compliance with the applicable laws, regulations and guidelines of the National Institutes of Health (NIH). • Species: Mouse • Strain: Envigo nude mice (Hsd:Athymic Nude-Foxn1^nu) • Age at implant: 5-6 weeks • Sex: male • Min weight (D14): 24.9 g • Mean weight (D14): 28.4 g (range of group means, 27.7-28.8 g)
Animals were anesthetized with an IP injection of a ketamine (100 mg/kg)/xylazine (6 mg/kg) cocktail. When the animals were non-responsive (determined by a toe pinch test), 100 μl of cell suspension (3.0 E+06 cells) were drawn into a 1 ml syringe and a 27×½″ gauge needle was then attached. A small air bubble is created in the plunger side of the syringe before injection. The needle was then inserted slowly through the center of the second intercostal space, approximately 3 mm to the left of the sternum and aimed centrally until a continuous pulsation of bright red oxygenated blood into the needle hub was observed. 100 μl of cell suspension was then slowly injected over 5 seconds. A fresh needle and syringe were used for each animal.
Animals were injected with firefly D-luciferin (150 mg/kg) by IP administration according to body weight (0.2 ml/20 g). The success of the intracardiac injections was verified by a one minute bioluminescence scan using large binning (high sensitivity) of the CCD chip immediately after the injection. Mice with signals from the entire body, from snout to base of the tail, were deemed to have been successfully injected, while mice with signals localized to the chest area only, or not fully extending into the snout, were triaged from the study immediately.
All mice were sorted into study groups based on body weight and BLI-derived estimation of tumor burden.
BLI was performed using an IVIS S5 Lumina system (PerkinElmer, Waltham, Mass.). Animals were imaged five at a time under 1-2% isoflurane gas anesthesia. Each mouse was injected IP with 150 mg/kg (15 mg/ml) D-luciferin and imaged in the prone then supine positions 10 minutes after the injection. Large binning of the CCD chip was used, and the exposure time was adjusted (10 seconds to 2 minutes) to obtain at least several hundred counts per image and to avoid saturation of the CCD chip. BLI images were collected on Days 0, 7, 14, 21, 28, 35, 42, 49, 56 and 63 post-implant.
Images were analyzed using Living Image 4.7.1 (PerkinElmer, MA) software. Each unique tissue signal was circled manually and labeled based on anatomical site as mandible or hind limb for both prone and supine images. For limbs, the signal was also designated as being from the right or left side of the mouse.
Signal flux (photons/sec) were calculated for each unique metastatic signal and exported for all ROIs to facilitate analyses between groups.
Study was terminated on Day 78. All BLI endpoint calculations were derived from total bone values. The BLI background signal for this study was measured at 1.20 E+05 p/s. An animal was credited with a partial regression if the BLI signal fell below half the staging BLI signal level. Similarly, a complete regression (CR) was credited if the BLI signal fell below the background level, and a tumor-free survivor was if the BLI signal was below background on last day of imaging (Day 63), with no evidence of disease at necropsy. […]

Setting [1] is: 1.5 mg/kg IV Q7D × 4 starting Day 14.
[2] abbreviates: 1.5 mg/kg IV Q7D × 4 starting Day 21.

In the case of `CC[C@H](C)[C@@H]([C@@H](CC(=O)N1CCC[C@H]1[C@H](OC)[C@@H](C)C(=O)N[C@H](C)[C@@H](O)c1ccccc1)OC)N(C)C(=O)[C@@H](NC(=O)[C@H](C(C)C)N(C)C(=O)OCc1ccc(NC(=O)[C@H](CCCNC(N)=O)NC(=O)[C@@H](NC(=O)CCCC(=O)ON2C(=O)CCC2=O)C(C)C)cc1)C(C)C` [BT5528] (X1-V[Cit][PABC][NMeV]V[Dil][Dolaproine]-X2), under setting [1], the “incidence of partial regressions” value is on record as 60%, the “increased lifespan (ILS)” value was 177.3%, the “Day 26 T/C” value worked out at 1% and the tumor growth delay was over 35.1 days. Further, under setting [2], the “increased lifespan (ILS)” value is on record as 145.5%, the “less incidence of partial regressions than with Day 14 start” value is reported as 40%, the “Day 26 T/C” value came out at 3.4% and the tumor growth delay was over 35.1 days. For the same compound, the “bone tumor cell burden and survival” value (4 weekly treatment cycles) was “reduced the bone tumor cell burden significantly and extended the survival of the mice”. Also, where the note is “mouse, in vivo”, the “mice at the end of the study (D78) without observable (macroscopic) disease” value came to 1 mouse.
